Measured values from ChEMBL document CHEMBL1155119, “Identification of novel inhibitors of methionyl-tRNA synthetase (MetRS) by virtual screening” (Bioorg Med Chem Lett, 2008).

Experiments:
[1] = Inhibition of Staphylococcus aureus MetRS assessed as decrease in […] incorporation by SPA
[2] = tested on: Staphylococcus aureus; assay: Inhibition of Staphylococcus aureus MetRS assessed as decrease in […] incorporation at 100 uM by SPA
[3] = tested on: Staphylococcus aureus; assay: Inhibition of Staphylococcus aureus MetRS assessed as decrease in […] incorporation at 40 uM by SPA

SMILES	IC50 [1] [µM]	inhibition [2] [%]	inhibition [3] [%]
O=C(Nc1cccc(Cl)c1)Nc1sc2c(c1-c1nc3ccccc3s1)CCCC2	6.3	80	
O=C(Cn1nnc(-c2ccccc2)n1)N/N=C/c1ccc(O)cc1O		45	
Cc1cccc(C(=O)Nc2nnc(CC(=O)N/N=C/c3ccc(O)cc3O)s2)c1	46.3	84	
O=C(CSc1ccc2ccccc2n1)N/N=C/c1ccccc1O		47	
O=C(Nc1ccccc1C(=O)N/N=C/c1ccccc1O)c1ccc(Cl)cc1	23.6	77	
Cc1cc(Cl)ccc1NC(=O)CCC(=O)N/N=C/c1ccccc1O	94.9	91	
O=C(Nc1cc(Cl)ccc1O)c1cnn2c1NC(c1ccc(Br)cc1)CC2C(F)(F)F (configuration not stated)		47	
COc1ccc(O)c(/C=N/NC(=O)CNC(=O)c2ccc(Cl)cc2)c1		91	35
Cc1ccc(S(=O)(=O)N2CCC(C(=O)N/N=C/c3ccccc3O)CC2)cc1	40.8	61	
O=C(NC(C(=O)N/N=C/c1ccccc1O)c1n[nH]c(=O)c2ccccc12)c1ccccc1 (configuration not stated)	35.6	52	
O=C(Nc1cccc(O)c1)c1cnn2c1NC(c1cccs1)CC2C(F)(F)F (configuration not stated)	5.7	83	
S=C(Nc1ccccc1)Nc1nc2ccccc2n1CCOc1ccccc1Cl	25.3	66	
O=C(CNC(=O)c1ccc(Cl)cc1)N/N=C/c1c(O)ccc2ccccc12	26.6	80	
COc1ccc(O)c(/C=N/NC(=O)CCC(=O)Nc2ccc(Br)cc2)c1	41.7	72	
O=C(CCCOc1ccc(Cl)cc1Cl)N/N=C/c1ccccc1O	4.8	86	
O=C(Nc1cccc(O)c1)c1cnn2c1NC(c1ccc(Br)cc1)CC2C(F)(F)F (configuration not stated)	8.3	55	
O=c1cc(NCCCNC2CCOc3c(Br)cc(Br)cc32)[nH]c2ccccc12 (configuration not stated)	0.008		
O=C(CSc1nc2ccccc2n1Cc1ccccc1)N/N=C/c1ccccc1O		76	52
O=C(/N=N/c1nc(Nc2ccccc2)nc(N2CCOCC2)n1)Nc1ccc(Cl)cc1		81	34

More lines, now with the values ahead:

IC50 [1] [µM]	inhibition [2] [%]	inhibition [3] [%]	SMILES
0.13			Clc1ccc(-c2ccc(-c3cc(-c4nnn[nH]4)nn3-c3cccnc3)cc2)c(Cl)c1
0.21			O=C(NCc1nc2ccccc2[nH]1)[C@@H]1CC(O)CN1Cc1ccc(Cl)cc1Cl (some centres not stated)
46.5	87		O=C(N/N=C/c1ccc(O)cc1O)c1cc(-c2ccccc2)nc2ccccc12
0.57			Nc1nn(CCO)c2cc(-c3ccc(Cl)cc3Cl)ccc12
0.02			O=C(O)c1ccc(OCc2ccc(Cl)cc2Cl)c(OCc2nc3ccccc3[nH]2)c1
11.5	92		O=C(Nc1ccccc1O)c1cc(C(=O)Nc2ccccc2O)cc(N2C(=O)c3ccccc3C2=O)c1
0.07			NC(=O)[C@H](Cc1ccc(O)cc1)NC(=O)[C@@H]1CCN1/C=C1\N=C(c2ccc(Cl)cc2Cl)OC1=O
86.8	67		S=C(Nc1ccccc1)Nc1nc2ccccc2n1CCOc1ccc(Cl)cc1
56	82		O=C(CSc1nc2ccccc2n1Cc1ccc(Cl)cc1)N/N=C/c1ccccc1O
